Source: patent US20240228482A1, “COMPOUNDS, COMPOSITIONS AND METHODS OF TREATING CANCER” (HOTSPOT THERAPEUTICS, INC., priority 2021, published 2024)

Target: T1, CBL-B (Homo sapiens, UniProt Q13191)
T1 construct: GST
Test: CBL-B TR-FRET IC50 screening (E1/E2 ubiquitination, Biotin-Ubiquitin, Anti GST-Tb donor / Streptavidin-d2 acceptor)
Type: biochemical
Details: second part of Table 2 (head 'Patent Cmpd No / Updated Activity'); same CBL-B TR-FRET IC50 bins A-F; read-out: Updated Activity

T1 sequence (Q13191 whole entry): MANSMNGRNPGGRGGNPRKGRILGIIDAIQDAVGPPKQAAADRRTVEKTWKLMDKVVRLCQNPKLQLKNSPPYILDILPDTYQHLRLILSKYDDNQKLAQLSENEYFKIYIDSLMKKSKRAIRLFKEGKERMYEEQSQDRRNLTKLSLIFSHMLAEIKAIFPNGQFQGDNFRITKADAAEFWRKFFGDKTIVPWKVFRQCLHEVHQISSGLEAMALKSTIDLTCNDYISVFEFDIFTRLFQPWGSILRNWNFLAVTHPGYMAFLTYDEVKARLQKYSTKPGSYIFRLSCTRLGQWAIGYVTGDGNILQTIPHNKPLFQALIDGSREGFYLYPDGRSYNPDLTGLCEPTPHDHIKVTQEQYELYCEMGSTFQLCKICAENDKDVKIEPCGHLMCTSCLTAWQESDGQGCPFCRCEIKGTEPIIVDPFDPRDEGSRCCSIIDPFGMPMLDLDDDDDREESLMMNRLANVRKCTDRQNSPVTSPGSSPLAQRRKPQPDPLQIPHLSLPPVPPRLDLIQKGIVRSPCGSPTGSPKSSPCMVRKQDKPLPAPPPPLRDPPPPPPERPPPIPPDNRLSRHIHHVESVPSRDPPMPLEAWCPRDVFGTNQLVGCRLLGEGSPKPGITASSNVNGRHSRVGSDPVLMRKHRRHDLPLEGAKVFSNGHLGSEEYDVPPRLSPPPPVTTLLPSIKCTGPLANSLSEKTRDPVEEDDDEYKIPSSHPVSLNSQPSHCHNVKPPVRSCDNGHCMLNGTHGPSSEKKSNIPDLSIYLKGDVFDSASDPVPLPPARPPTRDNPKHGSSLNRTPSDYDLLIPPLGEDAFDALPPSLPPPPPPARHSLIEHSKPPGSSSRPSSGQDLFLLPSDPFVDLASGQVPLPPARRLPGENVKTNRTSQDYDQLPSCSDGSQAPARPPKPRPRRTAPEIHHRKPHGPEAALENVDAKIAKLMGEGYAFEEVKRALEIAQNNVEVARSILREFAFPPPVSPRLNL

| IC50 | Compound |
| --- | --- |
| < 100 nM | [2H]C([2H])(c1cc(C(F)(F)F)c2cn(-c3cccc([C@H](c4nncn4C)C4CCC4)c3)c(=O)n2c1)N1CCC(C)(F)CC1 [Compound 526] |
| 301 to 1000 nM | Cn1cnnc1[C@H](c1cc(-c2cnn[nH]2)cc(-n2cc3c(C(F)(F)F)cccn3c2=O)c1)C1CCC1 [Compound 535] |
| < 100 nM | Cn1cnnc1[C@@H](c1cccc(-n2cc3c(C(F)(F)F)cc(CN4CCCS4(=O)=O)cn3c2=O)c1)C1CCC1 [Compound 541] |
| < 100 nM | Cn1cnnc1[C@@H](c1cccc(-n2cc3c(C(F)(F)F)cc(CN4CCNS4(=O)=O)cn3c2=O)c1)C1CCC1 [Compound 542] |
| < 100 nM | Cn1cnnc1[C@@H](c1cccc(-n2cc3c(C(F)(F)F)cc(CN4CCCNS4(=O)=O)cn3c2=O)c1)C1CCC1 [Compound 544] |
| < 100 nM | C[C@@H]1CCN1Cc1cc(C(F)(F)F)c2cn(-c3cccc([C@H](c4nncn4C)C4CCC4)c3)c(=O)n2c1 [Compound 547] |
| < 100 nM | COC[C@H]1CCN1Cc1cc(C(F)(F)F)c2cn(-c3cccc([C@H](c4nncn4C)C4CCC4)c3)c(=O)n2c1 [Compound 548] |
| < 100 nM | C[C@H]1CCCN(Cc2cc(C(F)(F)F)c3cn(-c4csc([C@@H](c5nncn5C)C5CCC5)c4)c(=O)n3c2)C1 [Compound 550_P1] |
| < 100 nM | Cn1cnnc1[C@@H](c1cccc(-n2cc3c(C(F)(F)F)cc(CN4CC(C)(C#N)C4)cn3c2=O)c1)C1CCC1 [Compound 564] |
| < 100 nM | C[C@H]1CCN1Cc1cc(C(F)(F)F)c2cn(-c3cccc([C@H](c4nncn4C)C4CCC4)c3)c(=O)n2c1 [Compound 565_P2] |
| < 100 nM | C[C@H]1CCCN(Cc2cc(C(F)(F)F)c3cn(-c4cccc([C@H](c5n[nH]cc5C#N)C5CCC5)c4)c(=O)n3c2)C1 [Compound 567] |
| < 100 nM | CCS(=O)(=O)N(C)Cc1cc(C(F)(F)F)c2cn(-c3cccc([C@H](c4nncn4C)C4CCC4)c3)c(=O)n2c1 [Compound 590] |
| < 100 nM | CCN(Cc1cc(C(F)(F)F)c2cn(-c3cccc([C@H](c4nncn4C)C4CCC4)c3)c(=O)n2c1)S(=O)(=O)CC [Compound 592] |
| < 100 nM | COCCS(=O)(=O)N(C)Cc1cc(C(F)(F)F)c2cn(-c3cccc([C@H](c4nncn4C)C4CCC4)c3)c(=O)n2c1 [Compound 594] |
| < 100 nM | [2H]C([2H])(c1cc(C(F)(F)F)c2cn(-c3cccc([C@H](c4nncn4C)C4CCC4)c3)c(=O)n2c1)N1CCC[C@@H](C(F)(F)F)C1 [Compound 597_P2] |
| < 100 nM | CN1CCN(Cc2cc(C(F)(F)F)c3cn(-c4cccc([C@H](c5nncn5C)C5CCC5)c4)c(=O)n3c2)S1(=O)=O [Compound 608] |
| < 100 nM | C[C@H](c1cc(C(F)(F)F)c2cn(-c3cccc([C@H](c4nncn4C)C4CCC4)c3)c(=O)n2c1)N(C)Cc1cncs1 [Compound 610_P1] |
| < 100 nM | C[C@@H](c1cc(C(F)(F)F)c2cn(-c3cccc([C@H](c4nncn4C)C4CCC4)c3)c(=O)n2c1)N(C)Cc1cncs1 [Compound 610_P2] |
| 100 to 300 nM | COCCn1ccnc1-c1cc(C(F)(F)F)c2cn(-c3cccc(C4(c5nncn5C)CCC4)c3)c(=O)n2c1 [Compound 611] |

The remaining lines, values behind:

| Compound | IC50 |
| --- | --- |
| CN(CC(=O)O)Cc1cc(C(F)(F)F)c2cn(-c3cccc([C@H](c4nncn4C)C4CCC4)c3)c(=O)n2c1 [Compound 522] | < 100 nM |
| CN1CCC2(CCN(Cc3cc(C(F)(F)F)c4cn(-c5cccc([C@H](c6nncn6C)C6CCC6)c5)c(=O)n4c3)CC2)C1=O [Compound 523] | < 100 nM |
| Cn1cnnc1[C@@H](c1cccc(-n2cc3c(C(F)(F)F)cc(CN4CCC5(CCO5)CC4)cn3c2=O)c1)C1CCC1 [Compound 524] | < 100 nM |
| Cn1cnnc1[C@@H](c1cccc(-n2cc3c(C(F)(F)F)cc(CN4CCC5(CC4)COC5)cn3c2=O)c1)C1CCC1 [Compound 525] | < 100 nM |
| [2H]C([2H])(c1cc(C(F)(F)F)c2cn(-c3cccc([C@H](c4nncn4C)C4CCC4)c3)c(=O)n2c1)N1CCO[C@H](C)C1 [Compound 527] | < 100 nM |
| Cn1cnnc1[C@@H](c1cccc(-n2cc3c(C(F)(F)F)cc(CN4CCC5CC54)cn3c2=O)c1)C1CCC1 (some centres unmarked) [Compound 528] | < 100 nM |
| Cn1cnnc1[C@@H](c1cc(-c2cnn[nH]2)cc(-n2cc3c(C(F)(F)F)cccn3c2=O)c1)C1CCC1 [Compound 536] | > 10000 nM |
| Cn1cnnc1[C@@H](c1cccc(-n2cc3c(C(F)(F)F)cc(CN4CCCCS4(=O)=O)cn3c2=O)c1)C1CCC1 [Compound 543] | < 100 nM |
| Cn1cnnc1[C@@H](c1cccc(-n2cc3c(C(F)(F)F)cc(CN4CCC5(CCOC5=O)CC4)cn3c2=O)c1)C1CCC1 [Compound 545] | < 100 nM |
| [2H]C([2H])(c1cc(C(F)(F)F)c2cn(-c3cccc([C@H](c4nncn4C)C4COC4)c3)c(=O)n2c1)N1CCC[C@H](C)C1 [Compound 546] | < 100 nM |
| Cn1cnnc1[C@@H](c1cccc(-n2cc3c(C(F)(F)F)cc(CN4CC(C#N)C4)cn3c2=O)c1)C1CCC1 [Compound 549] | < 100 nM |
| C[C@H]1CCCN(Cc2cc(C(F)(F)F)c3cn(-c4csc([C@H](c5nncn5C)C5CCC5)c4)c(=O)n3c2)C1 [Compound 550_P2] | < 100 nM |
| Cn1cnnc1[C@@H](c1cccc(-n2cc3c(C(F)(F)F)cc(CN4NC(=O)CC45COC5)cn3c2=O)c1)C1CCC1 [Compound 561] | < 100 nM |
| CN1CCCN(Cc2cc(C(F)(F)F)c3cn(-c4cccc([C@H](c5nncn5C)C5CCC5)c4)c(=O)n3c2)S1(=O)=O [Compound 562] | < 100 nM |
| C[C@H]1CCC[N+]([O-])(Cc2cc(C(F)(F)F)c3cn(-c4cccc([C@H](c5nncn5C)C5CCC5)c4)c(=O)n3c2)C1 (some centres unmarked) [Compound 563] | < 100 nM |
| [2H]C([2H])(c1cc(C(F)(F)F)c2cn(-c3cccc([C@@H](c4nncn4C)C4COC4)c3)c(=O)n2c1)N1CCC[C@H](C)C1 [Compound 565_P1] | > 10000 nM |
| C[C@H]1CCCN(Cc2cc(C(F)(F)F)c3cn(-c4cccc([C@@H](c5n[nH]cc5C#N)C5CCC5)c4)c(=O)n3c2)C1 [Compound 566] | > 10000 nM |
| Cn1cnnc1[C@@H](c1cccc(-n2cc3c(C(F)(F)F)cc(CN4CCC[C@](C)(O)C4)cn3c2=O)c1)C1CCC1 [Compound 568] | < 100 nM |
| Cn1cnnc1[C@@H](c1cccc(-n2cc3c(C(F)(F)F)cc(CN4CCN(S(C)(=O)=O)CC4)cn3c2=O)c1)C1CCC1 [Compound 572] | < 100 nM |
| CCN(Cc1cc(C(F)(F)F)c2cn(-c3cccc([C@H](c4nncn4C)C4CCC4)c3)c(=O)n2c1)S(C)(=O)=O [Compound 591] | < 100 nM |
| COCCN(Cc1cc(C(F)(F)F)c2cn(-c3cccc([C@H](c4nncn4C)C4CCC4)c3)c(=O)n2c1)S(C)(=O)=O [Compound 593] | < 100 nM |
| CN(CCC(=O)O)Cc1cc(C(F)(F)F)c2cn(-c3cccc([C@H](c4nncn4C)C4CCC4)c3)c(=O)n2c1 [Compound 595] | < 100 nM |
| COC(=O)CCN(C)Cc1cc(C(F)(F)F)c2cn(-c3cccc([C@H](c4nncn4C)C4CCC4)c3)c(=O)n2c1 [Compound 596] | < 100 nM |
| [2H]C([2H])(c1cc(C(F)(F)F)c2cn(-c3cccc([C@H](c4nncn4C)C4CCC4)c3)c(=O)n2c1)N1CCC[C@H](C(F)(F)F)C1 [Compound 597_P1] | 3000 to 10000 nM |
| Cn1cnnc1[C@@H](c1cccc(-n2cc3c(C(F)(F)F)cc(CN4CCC5(CCNC5=O)CC4)cn3c2=O)c1)C1CCC1 [Compound 609] | < 100 nM |
